A word on the MIC: it is the smallest concentration in the dilution series that meets the test's criterion for growth inhibition.

Converted amounts (≈) assume the structure as drawn.

For twelve compounds, MIC results are on record in US20220177508A1, “C10-Cyclic Substituted 13-Membered Macrolides and Uses Thereof” (Zikani Therapeutics, Inc., priority 2018, published 2022).

Common to all, as to assay type: cell-based
One assay has as its system S. aureus MP-12. The experiment in a line: Broth dilution MIC determination (CLSI), S. aureus MP-12. The note with it: Staphylococcus aureus, MP12; strain MP-12, broth dilution. For orientation: In broth dilution the organism is exposed to a series of concentrations in liquid medium.
The subject of a further assay is E. coli MP-4. The experiment in a line: Broth dilution MIC determination (CLSI), E. coli MP-4. The conditions noted are these: Escherichia coli, MP4; strain MP-4, broth dilution; read-out: MIC E. coli MP-4.
The test system of another assay is K. pneumoniae MP-546. The experiment in a line: Broth dilution MIC determination (CLSI), K. pneumoniae MP-546. The conditions noted are these: Klebsiella pneumoniae, MP546; strain MP-546, broth dilution.
The subject of the next assay is K. pneumoniae MP-648. The experiment in a line: Broth dilution MIC determination (CLSI), K. pneumoniae MP-648. The conditions noted are these: Klebsiella pneumoniae, MP648; strain MP-648, broth dilution.
The test system of the next assay is P. aeruginosa MP-3. The experiment in a line: Broth dilution MIC determination (CLSI), P. aeruginosa MP-3. The conditions noted are these: Pseudomonas aeruginosa, MP3; strain MP-3, broth dilution.
The subject of another assay is A. baumannii MP-15. Put plainly: Broth dilution MIC determination (CLSI), A. baumannii MP-15. The note with it: Acinetobacter baumannii, MP15; strain MP-15, broth dilution; read-out: MIC A. baumanii MP-15.

As to `CO[C@]1(C)C[C@@H](C)CN(C)[C@H]([C@H]2C[C@@H](N(C)CC3CC3)C2)COC(=O)C(C)(C)C(=O)[C@H](C)[C@H]1O[C@@H]1O[C@H](C)C[C@H](N(C)C)[C@H]1O` [Compound 18, (3R,6R,8R,9R,10R)-3-((1s,3S)-3-((cyclopropylmethyl)(methyl)amino)cyclobutyl)-9-(((2S,3R,4S,6R)-4-(dimethylamino)-3-hydroxy-6-methyltetrahydro-2H-pyran-2-yl)oxy)-8-methoxy-4,6,8,10,12,12-hexamethyl-1-oxa-4-azacyclotridecane-11,13-dione], the minimal inhibitory concentration (MIC) is over 32 µg/mL in the assay with S. aureus MP-12; under 4 µg/mL in the assay on E. coli MP-4; 4 to 32 µg/mL (≈ 6.27 to 50.2 µM) in the assay on K. pneumoniae MP-546; 4 to 32 µg/mL (≈ 6.27 to 50.2 µM) against K. pneumoniae MP-648; over 32 µg/mL against P. aeruginosa MP-3; over 32 µg/mL in the assay with A. baumannii MP-15.

As for `CO[C@]1(C)C[C@@H](C)CN(C)[C@H](C2CN(C(=O)[C@@H]3CCNC3)C2)COC(=O)C(C)(C)C(=O)[C@H](C)[C@H]1O[C@@H]1O[C@H](C)C[C@H](N(C)C)[C@H]1O` [Compound 22, (3R,6R,8R,9R,10R)-9-(((2S,3R,4S,6R)-4-(dimethylamino)-3-hydroxy-6-methyltetrahydro-2H-pyran-2-yl)oxy)-8-methoxy-4,6,8,10,12,12-hexamethyl-3-(1-((R)-pyrrolidine-3-carbonyl)azetidin-3-yl)-1-oxa-4-azacyclotridecane-11,13-dione], the MIC was 4 to 32 µg/mL (≈ 6.13 to 49 µM) in the assay on S. aureus MP-12; 4 to 32 µg/mL (≈ 6.13 to 49 µM) with E. coli MP-4; over 32 µg/mL in the assay with K. pneumoniae MP-546; over 32 µg/mL in the assay on K. pneumoniae MP-648; over 32 µg/mL with P. aeruginosa MP-3; over 32 µg/mL in the assay with A. baumannii MP-15.

Take `CO[C@]1(C)C[C@@H](C)CN(C)[C@H]([C@H]2C[C@H](N(C)CC3CC3)C2)COC(=O)C(C)(C)C(=O)[C@H](C)[C@H]1O[C@@H]1O[C@H](C)C[C@H](N(C)C)[C@H]1O` [Compound 24, (3R,6R,8R,9R,10R)-3-((1r,3R)-3-((cyclopropylmethyl)(methyl)amino)cyclobutyl)-9-(((2S,3R,4S,6R)-4-(dimethylamino)-3-hydroxy-6-methyltetrahydro-2H-pyran-2-yl)oxy)-8-methoxy-4,6,8,10,12,12-hexamethyl-1-oxa-4-azacyclotridecane-11,13-dione]: the MIC in the assay with S. aureus MP-12 was 4 to 32 µg/mL (≈ 6.27 to 50.2 µM); in the assay on E. coli MP-4 it was under 4 µg/mL; against K. pneumoniae MP-546 it was under 4 µg/mL; in the assay with K. pneumoniae MP-648, under 4 µg/mL; in the assay on P. aeruginosa MP-3, over 32 µg/mL; with A. baumannii MP-15, over 32 µg/mL.

As for `CO[C@]1(C)C[C@@H](C)CN(C)[C@H](C2CN(C(=O)CC(C)(C)CN(C)CC3CC3)C2)COC(=O)C(C)(C)C(=O)[C@H](C)[C@H]1O[C@@H]1O[C@H](C)C[C@H](N(C)C)[C@H]1O` [Compound 25, (3R,6R,8R,9R,10R)-3-(1-(4-((cyclopropylmethyl)(methyl)amino)-3,3-dimethylbutanoyl)azetidin-3-yl)-9-(((2S,3R,4S,6R)-4-(dimethylamino)-3-hydroxy-6-methyltetrahydro-2H-pyran-2-yl)oxy)-8-methoxy-4,6,8,10,12,12-hexamethyl-1-oxa-4-azacyclotridecane-11,13-dione], the MIC in the assay on S. aureus MP-12 was 4 to 32 µg/mL (≈ 5.43 to 43.4 µM); with E. coli MP-4 it was under 4 µg/mL; in the assay with K. pneumoniae MP-546, under 4 µg/mL; in the assay on K. pneumoniae MP-648 it was 4 to 32 µg/mL (≈ 5.43 to 43.4 µM); against P. aeruginosa MP-3 it was over 32 µg/mL; in the assay on A. baumannii MP-15, over 32 µg/mL.

On to `CO[C@]1(C)C[C@@H](C)CN(C)[C@H]([C@H]2C[C@H](N(C)C)C2)COC(=O)C(C)(C)C(=O)[C@H](C)[C@H]1O[C@@H]1O[C@H](C)C[C@H](N(C)C)[C@H]1O` [Compound 30, (3R,6R,8R,9R,10R)-9-(((2S,3R,4S,6R)-4-(dimethylamino)-3-hydroxy-6-methyltetrahydro-2H-pyran-2-yl)oxy)-3-((1r,3R)-3-(dimethylamino)cyclobutyl)-8-methoxy-4,6,8,10,12,12-hexamethyl-1-oxa-4-azacyclotridecane-11,13-dione], for which the MIC with S. aureus MP-12 was 4 to 32 µg/mL (≈ 6.69 to 53.5 µM); in the assay with E. coli MP-4, under 4 µg/mL; in the assay with K. pneumoniae MP-546, under 4 µg/mL; against K. pneumoniae MP-648 it was under 4 µg/mL; in the assay with P. aeruginosa MP-3, over 32 µg/mL; in the assay with A. baumannii MP-15 it was over 32 µg/mL.

On to `CO[C@]1(C)C[C@@H](C)CN(C)[C@H]([C@H]2C[C@@H](N(C)CC3CCCO3)C2)COC(=O)C(C)(C)C(=O)[C@H](C)[C@H]1O[C@@H]1O[C@H](C)C[C@H](N(C)C)[C@H]1O` (stereo partly drawn) [Compound 31, (3R,6R,8R,9R,10R)-9-(((2S,3R,4S,6R)-4-(dimethylamino)-3-hydroxy-6-methyltetrahydro-2H-pyran-2-yl)oxy)-8-methoxy-4,6,8,10,12,12-hexamethyl-3-((1s,3S)-3-(methyl((tetrahydrofuran-2-yl)methyl)amino)cyclobutyl)-1-oxa-4-azacyclotridecane-11,13-dione], for which the MIC is over 32 µg/mL in the assay on S. aureus MP-12; under 4 µg/mL in the assay with E. coli MP-4; under 4 µg/mL against K. pneumoniae MP-546; 4 to 32 µg/mL (≈ 5.99 to 47.9 µM) in the assay on K. pneumoniae MP-648; over 32 µg/mL in the assay with P. aeruginosa MP-3; over 32 µg/mL in the assay with A. baumannii MP-15.

As for `COCC(C)N1CC([C@@H]2COC(=O)C(C)(C)C(=O)[C@H](C)[C@@H](O[C@@H]3O[C@H](C)C[C@H](N(C)C)[C@H]3O)[C@](C)(OC)C[C@@H](C)CN2C)C1` (stereo partly drawn) [Compound 32, (3R,6R,8R,9R,10R)-9-(((2S,3R,4S,6R)-4-(dimethylamino)-3-hydroxy-6-methyltetrahydro-2H-pyran-2-yl)oxy)-8-methoxy-3-(1-(1-methoxypropan-2-yl)azetidin-3-yl)-4,6,8,10,12,12-hexamethyl-1-oxa-4-azacyclotridecane-11,13-dione], the MIC was over 32 µg/mL against S. aureus MP-12; under 4 µg/mL in the assay with E. coli MP-4; 4 to 32 µg/mL (≈ 6.37 to 51 µM) with K. pneumoniae MP-546; 4 to 32 µg/mL (≈ 6.37 to 51 µM) against K. pneumoniae MP-648; over 32 µg/mL against P. aeruginosa MP-3; over 32 µg/mL with A. baumannii MP-15.

In the case of `CO[C@]1(C)C[C@@H](C)CN(C)[C@H](C2CN(CC3CC3)C2)COC(=O)C(C)(C)C(=O)[C@H](C)[C@H]1O[C@@H]1O[C@H](C)C[C@H](N(C)C)[C@H]1O` [Compound 37, (3R,6R,8R,9R,10R)-3-(1-(cyclopropylmethyl)azetidin-3-yl)-9-(((2S,3R,4S,6R)-4-(dimethylamino)-3-hydroxy-6-methyltetrahydro-2H-pyran-2-yl)oxy)-8-methoxy-4,6,8,10,12,12-hexamethyl-1-oxa-4-azacyclotridecane-11,13-dione], the MIC is 4 to 32 µg/mL (≈ 6.56 to 52.5 µM) against S. aureus MP-12; under 4 µg/mL in the assay with E. coli MP-4; under 4 µg/mL against K. pneumoniae MP-546; 4 to 32 µg/mL (≈ 6.56 to 52.5 µM) against K. pneumoniae MP-648; over 32 µg/mL in the assay with P. aeruginosa MP-3; over 32 µg/mL in the assay with A. baumannii MP-15.

Take `CO[C@]1(C)C[C@@H](C)CN(C)[C@H](C2CN(C(=O)CNC(C)(C)C)C2)COC(=O)C(C)(C)C(=O)[C@H](C)[C@H]1O[C@@H]1O[C@H](C)C[C@H](N(C)C)[C@H]1O` [Compound 41, (3R,6R,8R,9R,10R)-3-(1-(tert-butylglycyl)azetidin-3-yl)-9-(((2S,3R,4S,6R)-4-(dimethylamino)-3-hydroxy-6-methyltetrahydro-2H-pyran-2-yl)oxy)-8-methoxy-4,6,8,10,12,12-hexamethyl-1-oxa-4-azacyclotridecane-11,13-dione]: the MIC against S. aureus MP-12 was 4 to 32 µg/mL (≈ 5.98 to 47.8 µM); in the assay with E. coli MP-4, under 4 µg/mL; against K. pneumoniae MP-546 it was under 4 µg/mL; against K. pneumoniae MP-648, 4 to 32 µg/mL (≈ 5.98 to 47.8 µM); against P. aeruginosa MP-3, over 32 µg/mL; in the assay with A. baumannii MP-15, over 32 µg/mL.

Consider `CO[C@]1(C)C[C@@H](C)CN(C)[C@H](C2CN(Cc3cnn(C)c3)C2)COC(=O)C(C)(C)C(=O)[C@H](C)[C@H]1O[C@@H]1O[C@H](C)C[C@H](N(C)C)[C@H]1O` [Compound 49, (3R,6R,8R,9R,10R)-9-(((2S,3R,4S,6R)-4-(dimethylamino)-3-hydroxy-6-methyltetrahydro-2H-pyran-2-yl)oxy)-8-methoxy-4,6,8,10,12,12-hexamethyl-3-(1-((1-methyl-1H-pyrazol-4-yl)methyl)azetidin-3-yl)-1-oxa-4-azacyclotridecane-11,13-dione], for which the MIC was 4 to 32 µg/mL (≈ 6.16 to 49.2 µM) against S. aureus MP-12; under 4 µg/mL in the assay on E. coli MP-4; under 4 µg/mL with K. pneumoniae MP-546; 4 to 32 µg/mL (≈ 6.16 to 49.2 µM) in the assay on K. pneumoniae MP-648; over 32 µg/mL in the assay on P. aeruginosa MP-3; over 32 µg/mL in the assay on A. baumannii MP-15.

Take `CO[C@]1(C)C[C@@H](C)CN(C)[C@H](C2CN(C(=O)CCN(C)C)C2)COC(=O)C(C)(C)C(=O)[C@H](C)[C@H]1O[C@@H]1O[C@H](C)C[C@H](N(C)C)[C@H]1O` [Compound 50, (3R,6R,8R,9R,10R)-9-(((2S,3R,4S,6R)-4-(dimethylamino)-3-hydroxy-6-methyltetrahydro-2H-pyran-2-yl)oxy)-3-(1-(3-(dimethylamino)propanoyl)azetidin-3-yl)-8-methoxy-4,6,8,10,12,12-hexamethyl-1-oxa-4-azacyclotridecane-11,13-dione]: the MIC against S. aureus MP-12 was 4 to 32 µg/mL (≈ 6.11 to 48.9 µM); in the assay with E. coli MP-4, 4 to 32 µg/mL (≈ 6.11 to 48.9 µM); in the assay on K. pneumoniae MP-546, 4 to 32 µg/mL (≈ 6.11 to 48.9 µM); with K. pneumoniae MP-648, 4 to 32 µg/mL (≈ 6.11 to 48.9 µM); in the assay on P. aeruginosa MP-3 it was over 32 µg/mL; in the assay with A. baumannii MP-15, over 32 µg/mL.

For `CO[C@]1(C)C[C@@H](C)CN(C)[C@H](C2CN(CCC(C)C)C2)COC(=O)C(C)(C)C(=O)[C@H](C)[C@H]1O[C@@H]1O[C@H](C)C[C@H](N(C)C)[C@H]1O` [Compound 51, (3R,6R,8R,9R,10R)-9-(((2S,3R,4S,6R)-4-(dimethylamino)-3-hydroxy-6-methyltetrahydro-2H-pyran-2-yl)oxy)-3-(1-isopentylazetidin-3-yl)-8-methoxy-4,6,8,10,12,12-hexamethyl-1-oxa-4-azacyclotridecane-11,13-dione], the MIC with S. aureus MP-12 was 4 to 32 µg/mL (≈ 6.39 to 51.1 µM); with E. coli MP-4, under 4 µg/mL; against K. pneumoniae MP-546 it was under 4 µg/mL; in the assay on K. pneumoniae MP-648 it was 4 to 32 µg/mL (≈ 6.39 to 51.1 µM); with P. aeruginosa MP-3 it was over 32 µg/mL; in the assay on A. baumannii MP-15, 4 to 32 µg/mL (≈ 6.39 to 51.1 µM).
